Data as given in PMC6209519 (Organic & biomolecular chemistry, 2018).

Tests used:
chymotrypsin = experiment: Enzymatic hydrolysis assay with chymotrypsin; assay type: in vitro ADME; settings: isolated enzyme chymotrypsin
HIV-1 = settings: across the strains tested, compared with 1

Substance | IC50 (HIV-1 CZA97) [nM] | IC50 (HIV-1 SF162) [nM] | IC50 (HIV-1 MN) [nM] | IC50 (HIV-1 DU422) [nM] | % remaining after 10 mins (chymotrypsin) [%] | increase in antiviral activity relative to peptide 1 (HIV-1) [fold]
Enfuvirtide | 941 ± 328 | 23.9 ± 2.1 | 6.5 ± 0.6 | 56 ± 1.6 |  | 
MTWEEWDKKIEEYTKKIEELIγKS [Peptide 3] |  |  |  |  | 17.6 | < 2
MTWXEWDXKIEEYTKKIEELIγKS (sidechain bridge or staple) [Peptide 4] |  |  |  |  | 57.2 | 
